Biological target: T1, Human Polymorphonuclear Leukocyte Elastase (Homo sapiens, UniProt P08246)
T1 construct: Crude extract of human polymorphonuclear leukocytes (PMN) containing elastase activity; from tissue; host or cells: human polymorphonuclear leukocytes (crude extract)
T1 sequence (P08246 30-267): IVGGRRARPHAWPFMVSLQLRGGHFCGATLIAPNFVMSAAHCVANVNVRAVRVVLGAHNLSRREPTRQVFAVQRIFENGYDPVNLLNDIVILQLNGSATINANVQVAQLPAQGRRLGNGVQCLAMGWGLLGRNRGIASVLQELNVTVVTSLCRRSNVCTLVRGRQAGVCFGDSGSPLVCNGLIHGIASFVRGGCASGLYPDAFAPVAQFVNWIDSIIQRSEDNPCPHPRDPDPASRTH
Assay: Enzyme assay for inhibition of human polymorphonuclear leukocyte elastase via hydrolysis of Boc-AAPAN or Boc-AAPVN
Type: biochemical
Details: expressed to the nearest thousand; for kinact/KI: pH 7.5, second order rate constant for inactivation of the enzyme, read-out: Kobs/[I]
Description: Enzyme Assays for the Inhibition of Human Polymorphonuclear Leukocyte Elastase Via Hydrolysis of N-t-Boc-alanyl-alanyl-prolylalanine-p-nitroanilide (Boc-AAPAN) or N-t-Boc-alanyl-prolylvaline-p-nitro-anilide (Boc-AAPVN) Reagent:
0.05M TES (N-tris[hydroxymethyl]methyl-2-mino-ethanesulfonic acid) Buffer, pH 7.5.
0.2 mM Boc-AAPAN or Boc-AAPVN.
To prepare substrate, the solid was first dissolved in 10.0 ml DMSO. Buffer at pH 7.5 was then added to a final volume of 100 ml.
Crude extract of human polymorphonuclear leukocytes (PMN) containing elastase activity.
Inhibitors (azetidinones) to be tested dissolved in DMSO just before use.
To 1.0 ml of 0.2 mM Boc-AAPAN in a cuvette, 0.01-0.1 ml of DMSO with or without inhibitor was added. After mixing, a measurement was taken at 410 mµ to detect any spontaneous hydrolysis due to presence of test compound. 0.05 Milliliters of PMN extract was then added and the ΔOD/min at 410 mµ was measured and recorded. Beckman model 35 spectrophotometer was used.
Results were expressed to the nearest thousand ^kobs/I which is the second order rate constant in per mole per second for inactivation of the enzyme.
The elastase activity in the crude PMN extract may vary from one preparation to another. A control of each new batch is run, and the volume added in the assay procedure is adjusted according to activity.

SMILES	kinact/KI	Kobs/[I] (second order rate constant for inactivation of the enzyme, pH 7.5)
CCC[C@@H](NC(=O)N1C(=O)C(CC)(CC)[C@@H]1Oc1ccc(C(=O)O[C@@H](C)C(=O)O)cc1)c1ccc(C)cc1 [Compound 11, 1-carboxy-ethyl [S-(R*,S*)]4-((3,3-diethyl-1-(((1-(4-methylphenyl)butyl)amino)carbonyl)-4-oxo-2-azetidinyl)oxy) benzoate]	1.13e+06 M⁻¹ s⁻¹	–
CCC[C@@H](NC(=O)N1C(=O)C(CC)(CC)[C@@H]1Oc1ccc(C(=O)O[C@@H](C)C(=O)N(CC)CC)cc1)c1ccc(C)cc1 [Compound 12, 2-(diethylamino)-1-methyl-2-oxoethyl[S-(R*,S*)]-4-((3,3-diethyl-1-(((1-(4-methyl-phenyl)butyl)amino)carbonyl)-4-oxo-2-azetidinyl)oxy) benzoate]	2.82e+06 M⁻¹ s⁻¹	–
CCC[C@@H](NC(=O)N1C(=O)C(CC)(CC)[C@@H]1Oc1ccc(C(=O)OC(C)CN(C)C)cc1)c1ccc(C)cc1 (stereo partly drawn) [Compound 13, 1-Dimethylamino-2-propyl [S-(R*,S*)]-4-[[3,3-diethyl-1-[[[1-(4-methyl-phenyl)butyl]amino]carbonyl]-4-oxo-2-azetidinyl]oxy]benzoate]	2.47e+06 M⁻¹ s⁻¹	–
CCC[C@@H](NC(=O)N1C(=O)C(CC)(CC)[C@@H]1Oc1ccc(C(=O)OCCCN(C)C)cc1)c1ccc(C)cc1 [Compound 14, 3-Dimethylamino-1-propyl [S-(R*,S*)]-4-[[3,3-diethyl-1-[[[1-(4-methyl-phenyl)butyl]amino]carbonyl]-4-oxo-2-azetidinyl]oxy]benzoate]	2.86e+06 M⁻¹ s⁻¹	–
CCC[C@@H](NC(=O)N1C(=O)C(CC)(CC)[C@@H]1Oc1ccc(C(=O)OCC[N+](C)(C)[O-])cc1)c1ccc(C)cc1 [Compound 15]	2.16e+06 M⁻¹ s⁻¹	–
CCC[C@@H](NC(=O)N1C(=O)C(CC)(CC)[C@@H]1Oc1ccc(C(=O)OCCN(CC)CC)cc1)c1ccc(C)cc1 [Compound 16, 2-Diethylaminoethyl [S-(R*,S*)]-4-[[3,3-diethyl-1-[[[1-(4-methyl-phenyl)butyl]amino]carbonyl]-4-oxo-2-azetidinyl]oxy]benzoate]	2.29e+06 M⁻¹ s⁻¹	–
CCC[C@@H](NC(=O)N1C(=O)C(CC)(CC)[C@@H]1Oc1ccc(C(=O)OCCN2CCOCC2)cc1)c1ccc(C)cc1 [Compound 17, 2-(1-[4-morpholino]ethyl) [S-(R*,S*)]-4-[[3,3-diethyl-1-[[[1-(4-methyl-phenyl)butyl]amino]carbonyl]-4-oxo-2-azetidinyl]oxy]benzoate]	4.73e+06 M⁻¹ s⁻¹	–
CCC[C@@H](NC(=O)N1C(=O)C(CC)(CC)[C@@H]1Oc1ccc(C(=O)OCCCCN(C)C)cc1)c1ccc(C)cc1 [Compound 18, 4-dimethylaminobutyl [S-(R*,S*)]-4-[[3,3-diethyl-1-[[[1-(4-methyl-phenyl)butyl]amino]carbonyl]-4-oxo-2-azetidinyl]oxy]benzoate]	1.93e+06 M⁻¹ s⁻¹	–
CCC[C@@H](NC(=O)N1C(=O)C(CC)(CC)[C@@H]1Oc1ccc(C(=O)OCC(=O)N2CCC[C@H]2C(=O)NCc2ccccc2)cc1)c1ccc(C)cc1 [Compound 19, [S-(R*,S*)] 1-(((4-((3,3-diethyl-1-(((1-(4-methylphenyl)butyl)amino)carbonyl-4-oxo-2-azetidinyl)oxy)benzoyl)oxy)acetyl-N-benzyl-L-prolinamide]	4.96e+06 M⁻¹ s⁻¹	–
CCC[C@@H](NC(=O)N1C(=O)C(CC)(CC)[C@@H]1Oc1ccc(C(=O)OCC(C)(C)N(C)C)cc1)c1ccc(C)cc1 [Compound 20, 2-dimethylamino-2-methyl-1-propyl [S-(R*,S*)]-4-[[3,3-diethyl-1-[[[1-(4-methyl-phenyl)butyl]amino]carbonyl]-4-oxo-2-azetidinyl]oxy]benzoate]	1.47e+06 M⁻¹ s⁻¹	–
CCC[C@@H](NC(=O)N1C(=O)C(CC)(CC)[C@@H]1Oc1ccc(C(=O)OCCN(C(C)C)C(C)C)cc1)c1ccc(C)cc1 [Compound 21, 2-(diisopropylamino)ethyl [S-(R*,S*)]-4-[[3,3-diethyl-1-[[[1-(4-methyl-phenyl)butyl]amino]carbonyl]-4-oxo-2-azetidinyl]oxy]benzoate]	1.67e+06 M⁻¹ s⁻¹	–
CCC[C@@H](NC(=O)N1C(=O)C(CC)(CC)[C@@H]1Oc1ccc(C(=O)OCCN2CCN(C(=O)OCc3ccccc3)CC2)cc1)c1ccc(C)cc1 [Compound 22, Benzyl [S-(R*,S*)]-4-[2-[[4-[[3,3-diethyl-1-[[[1-(4-methylphenyl)butyl]amino]carbonyl]-4-oxo-2-azetidinyl]oxy]benzoyl]oxy]-ethyl]-1-Piperazine-carboxylate]	4.12e+06 M⁻¹ s⁻¹	–
CCCCN(CCCC)CCOC(=O)c1ccc(O[C@@H]2N(C(=O)N[C@H](CCC)c3ccc(C)cc3)C(=O)C2(CC)CC)cc1 [Compound 23, 2-(dibutylamino)ethyl [S-(R*,S*)]-4-[[3,3-diethyl-1-[[[1-(4-methyl-phenyl)butyl]amino]carbonyl]-4-oxo-2-azetidinyl]oxy]benzoate]	992000 M⁻¹ s⁻¹	–
CCC[C@@H](NC(=O)N1C(=O)C(CC)(CC)[C@@H]1Oc1ccc(C(=O)OCCCCCCN(C)C)cc1)c1ccc(C)cc1 [Compound 24, [S-(R*,S*)]-6-(dimethylamino)hexyl-4-[[3,3-diethyl-1-[[[1-(4-methyl-phenyl)butyl]amino]carbonyl]-4-oxo-2-azetidinyl]oxy]-benzoate]	1.99e+06 M⁻¹ s⁻¹	–
CCC[C@@H](NC(=O)N1C(=O)C(CC)(CC)[C@@H]1Oc1ccc(C(=O)OCCN2CCNCC2)cc1)c1ccc(C)cc1 [Compound 25]	1.71e+06 M⁻¹ s⁻¹	–
CCC[C@@H](NC(=O)N1C(=O)C(CC)(CC)[C@@H]1Oc1ccc(C(=O)OCCN2CCN(C)CC2)cc1)c1ccc(C)cc1 [Compound 26, 2-(4-methyl-1-piperazinyl)ethyl[S-(R*,S*)]-4-[[3,3-diethyl-1-[[[1-(4-methyl-phenyl)butyl]amino]carbonyl]-4-oxo-2-azetidinyl]oxy]benzoate]	4.68e+06 M⁻¹ s⁻¹	–
CCC[C@@H](NC(=O)N1C(=O)C(CC)(CC)[C@@H]1Oc1ccc(C(=O)OCCN2CCN(C(C)=O)CC2)cc1)c1ccc(C)cc1 [Compound 27]	3.26e+06 M⁻¹ s⁻¹	–
CCCC(NC(=O)N1C(=O)C(CC)(CC)C1Oc1ccc(C(=O)OCCN(c2ccccc2)c2ccccc2)cc1)c1ccc(C)cc1 (stereo not drawn) [Compound 28, 2-(diphenylamino)ethyl[S-(R*,S*)]-4-[[3,3-diethyl-1-[[[1-(4-methylphenyl)butyl]amino]carbonyl]-4-oxo-2-azetidinyl]oxy]benzoate]	–	188,000 per mole per second
C=CCN(CC=C)CCOC(=O)c1ccc(O[C@@H]2N(C(=O)N[C@H](CCC)c3ccc(C)cc3)C(=O)C2(CC)CC)cc1 [Compound 29, 2-(di-2-propenylamino)ethyl [S-(R*,S*)]-4-[[3,3-diethyl-1-[[[1-(4-methylphenyl)butyl]amino]carbonyl]-4-oxo-2-azetidinyl]oxy]benzoate]	891000 M⁻¹ s⁻¹	–
CCC[C@@H](NC(=O)N1C(=O)C(CC)(CC)[C@@H]1Oc1ccc(C(=O)OCC(c2ccccc2)N(C)C)cc1)c1ccc(C)cc1 (stereo partly drawn) [Compound 30, 2-(dimethylamino)-2-phenylethyl [S-(R*,S*)]-4-[[3,3-diethyl-1-[[[1-(4-methylphenyl)butyl]amino]carbonyl]-4-oxo-2-azetidinyl]oxy]benzoate]	656000 M⁻¹ s⁻¹	–
CCC[C@@H](NC(=O)N1C(=O)C(CC)(CC)[C@@H]1Oc1ccc(C(=O)OCCN(C)Cc2ccccc2)cc1)c1ccc(C)cc1 [Compound 31, 2-[methyl(phenylmethyl)amino]ethyl [S-(R*,S*)]-4-[[3,3-diethyl-1-[[[1-(4-methyl-phenyl)butyl]amino]carbonyl]-4-oxo-2-azetidinyl]oxy]benzoate]	1.18e+06 M⁻¹ s⁻¹	–
CCC[C@@H](NC(=O)N1C(=O)C(CC)(CC)[C@@H]1Oc1ccc(CC(=O)OCCN(C)C)cc1)c1ccc(C)cc1 [Compound 32]	1.99e+06 M⁻¹ s⁻¹	–
CCC[C@@H](NC(=O)N1C(=O)C(CC)(CC)[C@@H]1Oc1ccc(CC(=O)OCCCN(C)C)cc1)c1ccc(C)cc1 [Compound 33]	1.15e+06 M⁻¹ s⁻¹	–
CCC[C@@H](NC(=O)N1C(=O)C(CC)(CC)[C@@H]1Oc1ccc(CC(=O)OCCN(CC)CC)cc1)c1ccc(C)cc1 [Compound 34]	1.34e+06 M⁻¹ s⁻¹	–
CCC[C@@H](NC(=O)N1C(=O)C(CC)(CC)[C@@H]1Oc1ccc(CC(=O)OCCN2CCOCC2)cc1)c1ccc(C)cc1 [Compound 35]	1.72e+06 M⁻¹ s⁻¹	–
CCC[C@@H](NC(=O)N1C(=O)C(CC)(CC)[C@@H]1Oc1ccc(CC(=O)OC(C)CN(C)C)cc1)c1ccc(C)cc1 (stereo partly drawn) [Compound 36]	1.69e+06 M⁻¹ s⁻¹	–
CCC[C@@H](NC(=O)N1C(=O)C(CC)(CC)[C@@H]1Oc1ccc(CC(=O)OCC(C)(C)N(C)C)cc1)c1ccc(C)cc1 [Compound 37]	2.1e+06 M⁻¹ s⁻¹	–
CCC[C@@H](NC(=O)N1C(=O)C(CC)(CC)[C@@H]1Oc1ccc(CC(=O)OCC(=O)O)cc1)c1ccc(C)cc1 [Compound 38]	1.01e+06 M⁻¹ s⁻¹	–
CCC[C@@H](NC(=O)N1C(=O)C(CC)(CC)[C@@H]1Oc1ccc(CC(=O)OCCN(C)Cc2ccccc2)cc1)c1ccc(C)cc1 [Compound 39]	751000 M⁻¹ s⁻¹	–
CCC[C@@H](NC(=O)N1C(=O)C(CC)(CC)[C@@H]1Oc1ccc(CC(=O)N(CCO)CCO)cc1)c1ccc(C)cc1 [Compound 40]	1.24e+06 M⁻¹ s⁻¹	–

From patent EP0595557A1, “New substituted azetidinones as anti-inflammatory and antidegenerative agents” (MERCK & CO. INC., priority 1992, dated 1994)
